Test results: BindingDB's records for doi:10.1016/0028-3908(88)90149-9 (Organon International, 1988)

Target: Norepinephrine transporter (Rattus norvegicus, UniProt Q9JIA2)

Ki: 15.9 nM
Structure (SMILES): CN1Cc2c(N)cccc2[C@H](c2ccccc2)C1 [(+/-)-2-Methyl-4-phenyl-1,2,3,4-tetrahydro-isoquinolin-8-ylamine]
